Entries after “also recorded” stand apart in the source; their conditions may differ. Read-outs that look alike come from different tables or passages of the source.
Assays:
[1] = system: HMGB1-induced TNF release; assay: HMGB1-induced TNF release in human primary macrophages (ELISA); assay type: cell-based; conditions: FIG. 17A
Experimental: For all of these studies, TNF released was measured using an ELISA.

[2] = system: CCI-induced neuropathic pain; assay: Chronic constriction injury of the sciatic nerve (CCI) neuropathic pain model; assay type: in vivo, rat
[3] = Stability under acidic conditions (pH=2), LC-MS; assay type: physicochemical; conditions: pH=2, two hours
[4] = assay type: in vivo; conditions: single-dose, rats
[5] = system: APAP-induced liver injury; assay: APAP-induced liver injury model; assay type: in vivo, mouse
[6] = male, Sprague-Dawley, rat, in vivo
[7] = system: PAMPs (LPS, PGN, AGE and Poly I:C)-induced TNF release; assay: PAMPs-induced TNF release in human macrophages; assay type: cell-based; conditions: LPS 4 ng/ml, poly I:C 50 μg/ml, PGN 5 μg/ml, S100A12 50 μg/ml; 16 hours
Experimental: TNF released was measured.

in vivo = conditions: male, Sprague-Dawley, rat, iv, 1 mg/kg, AUCtest
STZ-induced diabetes = assay: STZ-induced diabetes; assay type: in vivo; conditions: repetitive administration, 500 μg/mouse
Experimental: In Example 21, the effect of selective HMGB1-TLR4/MD-2 inhibition in STZ-induced diabetes was evaluated. Increased levels of HMGB1 have been reported in both diabetic patients and animal models. For example, elevated expression of HMGB1 is found in the retinas of diabetic patients and rat models with retinopathy. ([…]., Upregulation of RAGE and its ligands in proliferative retinal disease, Experimental Eye Research, 2006; 82(5): 807-815; Yu Y., The role of high mobility group box 1 (HMGB-1) in the diabetic retinopathy inflammation and apoptosis, International Journal of Clinical and Experimental Pathology, 2015; 8(6): 6807). […] (Dasu M. […] Based on this literature, tests were conducted on the effects of […] (SEQ ID NO: 1) and […] on STZ-induced diabetes in mice. Mice were administered repetitive administration of […] (500 μg/mouse). […] Repetitive administration of […] was therefore shown to be beneficial in STZ-induced diabetes. […] (*: P<0.05 vs. PBS group. N=6-8 mice per group).

[8] = Degradation in rat plasma and whole blood; assay type: in vitro ADME
[9] = system: DAMPs (CIRP, SAA, PEDF, HSP 70, HSP90, H2A)-induced TNF secretion; assay: DAMPs-induced TNF secretion in human macrophages; assay type: cell-based; conditions: 16 hours
[10] = Pharmacokinetics after intravenous administration at 1 mg/kg in male Sprague-Dawley rats (LC-MS); conditions: Mean
[11] = system: liver ischemia and reperfusion injury; assay: Warm liver ischemia and reperfusion (I/R) model; assay type: in vivo, mouse; conditions: 6 hours after reperfusion, vs vehicle control
Experimental: […] (SEQ ID NO: 1) (or vehicle control) was administered intraperitoneally at 500 μg/mouse at the time of I/R surgery and euthanized 6 hours later. Serum levels of ALT and AST were reduced in […] (SEQ ID NO: 1)-treated group vs. vehicle controls. *: P<0.05 vs. I/R group. n=5-7 mice/group. […] (SEQ ID NO: 1)-treated mice as compared to vehicle control (neutrophil infiltration, arrow). n=3-5 mice per group.

Oral bioavailability = conditions: in vivo
[12] = system: HMGB1-induced TNF release; conditions: cited from earlier work
[13] = system: APAP-induced liver injury; conditions: cited from earlier work
[14] = system: TNF release stimulated by LPS, PGN, Poly I:C, CpG DNA or S100 A12; conditions: cited from earlier work
[15] = system: liver ischemia and reperfusion injury; conditions: cited from earlier work

With `NC(=O)N(CCC(=O)O)NC(=O)[C@H](CO)NC(=O)[C@H](CO)NC(=O)N(N)Cc1ccccc1` [K883] the “HMGB1-induced TNF secretion” value [1] was “causes inhibition”, the “Paw Withdrawal Latency (sec), CCI” value ([2]; 0 hours post treatment, K883 800 μg/rat or 2g7 300 μg/rat IP) was 4.1 ± 1.0 s and the “mechanical and thermal hypersensitivity” value ([2]; 800 μg/rat IP once a day for 3 days, Hargreaves, von Frey) was “ameliorated both mechanical and thermal hypersensitivity; also recorded: improved CCI-induced thermal and mechanical hypersensitivity”. For the same compound, the “tolerance to repeated treatment” value ([2]; 800 μg/rat IP once daily for three days, 2 weeks) was “did not develop tolerance”, the “Paw Withdrawal Latency (sec), CCI” value ([2]; 2 hours post treatment) was 4.3 ± 1.2 s and the “Paw Withdrawal Latency (sec), CCI” value ([2]; 6 hours post treatment) was 6.0 ± 0.6 s. For the same compound, the “Paw Withdrawal Latency (sec), CCI” value ([2]; 24 hours post treatment) was 5.0 ± 0.5 s, the thermal hypersensitivity ([2]; CCI rats) was “ameliorated the thermal hypersensitivity” and the “CCI-induced CXCL1 and TNF expression (DRGs)” value ([2]; DRGs) was “reduce CCI-induced CSCL1 and TNF expression”. The “CCI-induced CXCL1, TNF and IL-1β expression (spine)” value ([2]; spine) was “reduce CCI-induced CSCL1, TNF and IL-1β expression”, the “stability to acid hydrolysis” value [3] was “resistant to acid hydrolysis” and the tolerability [4] was “well-tolerated”. The “liver necrosis (H&E)” value ([5]; APAP 350 mg/kg, K883 50 μg/mouse IP at 2 and 7 hours, 24 hours post-APAP, vs vehicle) was “reduced liver necrosis”, the “mice surviving 2 weeks post-APAP” value ([5]; APAP 400 mg/kg, 50 μg/mouse IP once-a-day for 5 days from 2 hours post-APAP, control group 8) was 14 mice out of 15 and the Plasma concentration ([6]; 0.5 hr) was 2500 ng/mL. It also gave a Plasma concentration ([6]; 1 hr) of 1300 ng/mL, a Plasma concentration ([6]; 2 hr) of 130 ng/mL and a Plasma concentration ([6]; 6 hr) of 5.10 ng/mL. The Plasma concentration ([6]; 8 hr) was 2.01 ng/mL, the “PAMPs-induced TNF release” value [7] was “failed to inhibit other PAMPS; also recorded: does not inhibit other PAMPs” and the AUC (in vivo) was 3770 ng·h/mL. For the same compound, the insulitis (STZ-induced diabetes) was “reduces insulitis”, the weight gain (STZ-induced diabetes) was “improves weight gain” and the hyperglycemia (STZ-induced diabetes; vs AI5779 or PBS controls) was “delays hyperglycemia”. For the same compound, the “degradation after incubating 120 minutes” value [8] was “not degraded”, the “TNF secretion induced by other DAMPs” value [9] was “is not inhibited” and the Plasma concentration ([10]; 0.50 hr) was 2913 ng/mL. The Plasma concentration ([10]; 1.0 hr) was 1091 ng/mL, the Plasma concentration ([10]; 2.0 hr) was 135 ng/mL and the Plasma concentration ([10]; 4.0 hr) was 16.6 ng/mL. The Plasma concentration ([10]; 8.0 hr) was 1.52 ng/mL, the “liver inflammation (H&E, neutrophil infiltration)” value [11] was “reduced inflammation” and the oral bioavailability (Oral bioavailability) was “low”.
In the case of `NC(=O)[C@H](CCC(=O)O)NC(=O)[C@H](CO)NC(=O)[C@H](CO)NC(=O)[C@@H](N)Cc1ccccc1` [P5779], the “HMGB1-induced TNF release from macrophages” value [12] is listed as “inhibit HMGB1-induced TNF release from macrophages in a concentration-dependent manner”, the “serum ALT” value ([13]; 500 ugs/mouse) is listed as “significant reductions in ALT” and the “liver necrosis (H&E)” value ([13]; APAP 350 mg/kg, P5779 50 or 500 μg/mouse IP at 2 and 7 hours, vs scrambled control peptide) is listed as “reduced liver necrosis”. The “percent survival (2 weeks) post-APAP” value ([13]; APAP 400 mg/kg, 500 μg/mouse IP once a day for 5 days) was “significantly improved”, the “TNF release in macrophages stimulated by LPS, PGN, Poly I:C, CpG DNA or S100 A12” value [14] was “not suppress TNF release” and the “serum levels of ALT and AST” value ([15]; 500 μg/mouse IP at time of I/R surgery, 6 hours) was “reduced”. The “liver inflammation (H&E, neutrophil infiltration)” value ([15]; 6 hours after reperfusion, vs vehicle control) was “reduced inflammation”.

From patent US11471508B2, “HMGB1 antagonist treatment of diabetic peripheral neuropathy” (THE FEINSTEIN INSTITUTES FOR MEDICAL RESEARCH, priority 2019, dated 2022)
